Assay results published in US20260223850A1, “SUBSTITUTED PYRROLIDONE COMPOUND, PREPARATION METHOD THEREFOR, COMPOSITION AND APPLICATION THEREOF” (QINGDAO KINGAGROOT CHEMICAL COMPOUND CO., LTD., priority 2023, published 2026).

Columns and labels:
Type in all cases: in vivo
Echinochloa phyllopogon = assay: Seedling stage sealing experiment for water-seeding; conditions: 120 g a.i./ha, 15 days, fresh weight control rate
How it was run: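 Water-seeding seedling stage test: broadcast seeds, cover with soil, keep bowls moist in a water box; spray compound (acetone, diluted in water) at 120, 60, 30, 15 g a.i./ha; culture 15 d in greenhouse; grade 0–9 by fresh-weight growth control; mean of 3.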

Echinochloa crusgalli = assay: as above; conditions: 120 g a.i./ha, 15 days, fresh weight control rate
Huaidao (rice cultivar) = assay: Seedling stage sealing experiment for water-seeding (crop safety); conditions: 120 g a.i./ha, 15 days, fresh weight control rate; for Huaidao (rice cultivar) plant damage level: seedling stage sealing; for Huaidao (rice cultivar) plant damage level (growth control rate): spray, seedling stage sealing for water-seeding
Source text: The activity level criteria for plant damage (i.e., growth control rate) are as follows: • Level 9: completely dead; • Level 8: growth control rate greater than or equal to 90% and less than 100%; • Level 7: growth control rate greater than or equal to 80% and less than 90%; • Level 6: growth control rate greater than or equal to 70% and less than 80%; • Level 5: growth control rate greater than or equal to 50% and less than 70%; • Level 4: growth control rate greater than or equal to 30% and less than 50%; • Level 3: growth control rate greater than or equal to 20% and less than 30%; • Level 2: growth control rate greater than or equal to 10% and less than 20%; • Level 1: growth control rate less than 10%; • Level 0: no effect.
The above growth control rates are fresh weight control rates.
Echinochloa phyllopogon, Digitaria sanguinalis, Huaidao (rice cultivar), etc. were broadcasted on the surface of nutrition bowls filled with soil and fully covered by soil. The foregoing well-prepared nutrition bowls were then placed in a cultivation box with water filled to a suitable height to keep the soil in the nutrition bowls moist. A test compound of the present invention was individually dissolved with acetone, then diluted into solution of a certain concentration using a certain amount of water, and sprayed using a spray tower. The plants were placed on a greenhouse seedbed and cultured for 15 days, and the experimental results were then collected. The compound was applied at 120, 60, 30 and 15 g a.i./ha in triplicate, and the results were averaged.

[1] = spray, seedling stage sealing for water-seeding

SMILES | Echinochloa phyllopogon activity level (growth control rate) (Echinochloa phyllopogon; seedling stage sealing) | Echinochloa crusgalli activity level (growth control rate) (Echinochloa crusgalli; seedling stage sealing) | Huaidao (rice cultivar) plant damage level (Huaidao (rice cultivar)) | Echinochloa phyllopogon activity level (growth control rate) (Echinochloa phyllopogon; [1]) | Echinochloa crusgalli activity level (growth control rate) (Echinochloa crusgalli; [1]) | Huaidao (rice cultivar) plant damage level (growth control rate) (Huaidao (rice cultivar))
CN1C[C@H](c2cc(Br)cc(Br)c2)[C@@H](C(=O)Nc2cnn(C)c2Cl)C1=O [440′] | 9 | 9 | 0 |  |  | 
Cc1cccc([C@H]2CN(C)C(=O)[C@@H]2C(=O)Nc2cnn(C(F)F)c2C)c1 [465′] |  |  |  | 9 | 9 | 2 (Level 2: growth control rate greater than or equal to 10% and less than 20%)
CN1C[C@H](c2cccc(C(F)(F)F)c2)[C@@H](C(=O)Nc2cnn(C)c2)C1=O [156′] | 7 (Level 7: growth control rate greater than or equal to 80% and less than 90%) | 9 | 0 |  |  | 
CCn1ncc(NC(=O)[C@H]2C(=O)N(C)C[C@@H]2c2cccc(C)c2)c1Cl [385′] | 9 | 9 | 2 (Level 2: growth control rate greater than or equal to 10% and less than 20%) |  |  | 
Cc1cccc([C@H]2CN(C)C(=O)[C@@H]2C(=O)Nc2cnn(C)c2F)c1 [388′] | 6 (Level 6: growth control rate greater than or equal to 70% and less than 80%) | 9 | 0 |  |  | 
CN1C[C@H](c2cccc(C3CC3)c2)[C@@H](C(=O)Nc2cnn(C(F)F)c2Cl)C1=O [413′] | 9 | 9 | 0 |  |  | 
Cc1csc([C@H]2CN(C)C(=O)[C@@H]2C(=O)Nc2cnn(C)c2Cl)c1 [520′] |  |  |  | 7 (Level 7: growth control rate greater than or equal to 80% and less than 90%) | 9 | 0
Cc1cc([C@H]2CN(C)C(=O)[C@@H]2C(=O)Nc2cnn(C)c2Br)cc(C)c1C [516′] |  |  |  | 9 | 9 | 0
CN1CC(c2cccc(C(F)(F)F)c2)C(C(=O)Nc2c(Cl)nn(C)c2Cl)C1=O (stereo not drawn) [Compound 94] | 5 (Level 5: growth control rate greater than or equal to 50% and less than 70%) | 5 (Level 5: growth control rate greater than or equal to 50% and less than 70%) | 0 |  |  | 
CN1C[C@H](c2cccc(C(F)(F)F)c2)[C@@H](C(=O)Nc2cnn(C)c2C#N)C1=O [187′] | 9 | 9 | 0 |  |  | 
CCn1ncc(NC(=O)[C@H]2C(=O)N(C)C[C@@H]2c2cccc(C)c2)c1C1CC1 [394′] | 6 (Level 6: growth control rate greater than or equal to 70% and less than 80%) | 9 | 0 |  |  | 
Cc1cc(C)cc([C@H]2CNC(=O)[C@@H]2C(=O)Nc2cnn(C)c2Cl)c1 [416′] | 6 (Level 6: growth control rate greater than or equal to 70% and less than 80%) | 9 | 0 |  |  | 
Cc1ccc([C@H]2CN(C)C(=O)[C@@H]2C(=O)Nc2cnn(C(F)F)c2Cl)cc1 [486′] |  |  |  | 9 | 9 | 2 (Level 2: growth control rate greater than or equal to 10% and less than 20%)
Cc1cc(C2CN(C)C(=O)C2C(=O)Nc2cnn(C)c2C(F)(F)F)cc(C)c1C (stereo not drawn) [Compound 517] |  |  |  | 9 | 9 | 0
COCCn1ncc(NC(=O)[C@H]2C(=O)N(C)C[C@@H]2c2cc(C)cc(C)c2)c1Cl [423′] | 6 (Level 6: growth control rate greater than or equal to 70% and less than 80%) | 9 | 0 |  |  | 
Cc1cc(C)cc([C@H]2CN(C)C(=O)[C@@H]2C(=O)Nc2cnn(C)c2F)c1 [271′] | 9 | 9 | 0 |  |  | 
CCn1ncc(NC(=O)[C@H]2C(=O)N(C)C[C@@H]2c2cccc(C(F)(F)F)c2)c1C1CC1 [408′] | 9 | 9 | 0 |  |  | 
Cc1cc(C)cc([C@H]2CN(C)C(=O)[C@@H]2C(=O)Nc2cnn(C)c2I)c1 [426′] | 9 | 9 | 0 |  |  | 
C#CCn1ncc(NC(=O)[C@H]2C(=O)N(C)C[C@@H]2c2cccc(C)c2)c1Cl [132′] | 7 (Level 7: growth control rate greater than or equal to 80% and less than 90%) | 7 (Level 7: growth control rate greater than or equal to 80% and less than 90%) | 0 |  |  | 
Cc1cccc([C@H]2CN(C)C(=O)[C@@H]2C(=O)Nc2cnn(C)c2C(F)(F)F)c1 [136′] | 9 | 9 | 0 |  |  | 
CCc1ccc([C@H]2CN(C)C(=O)[C@@H]2C(=O)Nc2cnn(C)c2Cl)cc1 [244′] | 7 (Level 7: growth control rate greater than or equal to 80% and less than 90%) | 9 | 0 |  |  | 
CN1C[C@H](c2cc(Br)cc(C(F)F)c2)[C@@H](C(=O)Nc2cnn(C)c2Cl)C1=O [511′] |  |  |  | 6 (Level 6: growth control rate greater than or equal to 70% and less than 80%) | 9 | 0
C#CCn1ncc(NC(=O)[C@H]2C(=O)N(C)C[C@@H]2c2cccc(C(F)(F)F)c2)c1Cl [163′] | 8 (Level 8: growth control rate greater than or equal to 90% and less than 100%) | 9 | 0 |  |  | 
C=CCn1ncc(NC(=O)[C@H]2C(=O)N(C)C[C@@H]2c2cccc(C)c2)c1Cl [381′] | 6 (Level 6: growth control rate greater than or equal to 70% and less than 80%) | 9 | 0 |  |  | 
CCn1ncc(NC(=O)[C@H]2C(=O)N(C)C[C@@H]2c2cc(C)cc(C)c2)c1C1CC1 [432′] | 9 | 9 | 0 |  |  | 
COCn1ncc(NC(=O)[C@H]2C(=O)N(C)C[C@@H]2c2cccc(C)c2)c1Cl [127′] | 8 (Level 8: growth control rate greater than or equal to 90% and less than 100%) | 9 | 0 |  |  | 
Cc1cc([C@H]2CN(C)C(=O)[C@@H]2C(=O)Nc2cnn(C)c2Cl)cc(C(F)(F)F)c1 [69′] | 9 | 9 | 1 (Level 1: growth control rate less than 10%) |  |  | 
CCc1c(NC(=O)[C@H]2C(=O)N(C)C[C@@H]2c2cc(C)cc(C)c2)cnn1C [273′] | 6 (Level 6: growth control rate greater than or equal to 70% and less than 80%) | 9 | 0 |  |  | 
